Test results published in patent publication US20220251126A1, “ANTICANCER AGENTS” (Yissum Research Development Company of the Hebrew …, priority 2019, published 2022).
Where two headings read alike, the source gives them in different places.

Assays:
A375 = test: Cytotoxicity, A375 cells; type: cell-based, human
A2780cisR = test: MTT cytotoxicity, cisplatin resistant line A2780cisR; type: cell-based, human
Protocol: (§1) Cell cultures. The human ovarian A2780 and A2780cisR cancer were obtained from the American Type Culture Collection (ATCC, Rockville, Md.). Cell lines were maintained in the logarithmic phase at 37° C. under a 5% carbon dioxide atmosphere using RPMI 1640 medium containing 10% fetal calf serum, antibiotics (50 units per mL penicillin and 50 μg mL^−1 streptomycin) and 2 mM L-glutamine. MTT assay. The growth inhibitory effect towards human cell lines was evaluated by means of MTT (tetrazolium salt reduction) assay. Briefly, 3-8×10^3 cells per well, dependent upon the growth characteristics of the cell line, were seeded in 96-well microplates in growth medium (100 μL) and then incubated at 37° C. under a 5% carbon dioxide atmosphere. After 24 h, the medium was removed and replaced with a fresh one containing the compound to be studied at an appropriate concentration. Triplicate cultures were established for each treatment. After 72 h, each well was treated with 10 μL of a 5 mg mL^−1 MTT (3-(4,5-dimethylthiazol-2-yl)-2,5-diphenyltetrazoliumbromide) solution, and after additional 5 h, 100 μL of a sodium dodecyl sulfate (SDS) solution in 0.01 M HCl were added. Following overnight incubation, the inhibition of cell growth induced by the tested complexes was detected by measuring the absorbance of each well at 570 nm using a Bio-Rad 680 microplate reader (Bio-Rad, Hercules, CA).The mean absorbance for each drug dose was expressed as a percentage of the control untreated well absorbance and plotted vs. drug concentration.

PC9 = test: Cytotoxicity, PC9 cells; type: cell-based, human
A2780 = test: MTT cytotoxicity, ovarian cancer cells A2780; type: cell-based, human
Protocol: as §1

[1] = test system: Lewis lung carcinoma (LLC); test: In vivo anticancer activity toward Lewis lung carcinoma (LLC) solid tumor; design: species or system C57BL mice; conditions: for reduction of tumor growth / tumor mass compared to the control group: LLC model, day 15, rounded values of the text; for In vivo efficacy LLC Inhibition of tumor growth (%) / In vivo efficacy LLC tumor weight: Table 1, daily dose 20 (Gem-Carb complex, oral), 3 (cisplatin), 60 (gemcitabine); for In vivo efficacy LLC Inhibition of tumor growth (%): day 15, vs control, 60 + 3 (combination) mg kg^-1; for In vivo efficacy LLC tumor weight / Average tumor weight (mean ± SD, g) / Inhibition of tumor growth (%): day 15; for In vivo efficacy LLC tumor weight: 60 + 3 (combination) mg kg^-1, days 7-14; for Average tumor weight (mean ± SD, g) / Inhibition of tumor growth (%): Table 2, daily oral 20 mg kg^-1 Gem-Carb complex, daily i.p. 3 mg kg^-1 cisplatin, 60 mg kg^-1 Gem or combination, days 7-14
Protocol: In vivo anticancer activity toward Lewis lung carcinoma (LLC). All studies involving animal testing were carried out in accordance with ethical guidelines for animal research acknowledging the European Directive 2010/63/UE as to the animal welfare and protection and the related codes of practice. The mice were purchased from Charles River, housed in steel cages under controlled environmental conditions (constant temperature, humidity, and 12 h dark/light cycle), and alimented with commercial standard feed and tap water ad libitum. The LLC cell line was purchased from ECACC, United Kingdom. The LLC cell line was maintained in DMEM (Euroclone) supplemented with 10% heat inactivated fetal bovine serum (Euroclone), 10 mM L-glutamine, 100 U mL-1 penicillin, and 100 μg mL^−1 streptomycin in a 5% CO2 air incubator at 37° C. The LLC was implanted intramuscularly (i.m.) as a 2×10^6 cell inoculum into the right hind leg of 8 week old male and female C57BL mice (24±3 g body weight). […] Control mice received the vehicle (0.5% DMSO (v/v) and 99.5% of a saline solution (v/v)), whereas treated groups received daily doses of ctc-[Pt(NH3)2(Gem-Carb)(PhB)Cl2] […] At day 15, animals were sacrificed, the legs were amputated at the proximal end of the femur, and the inhibition of tumor growth was determined from the difference in the weights of the tumor-bearing leg and the healthy leg of the animals, expressed as a percentage referenced to the control animals Body weight was measured at day 0 and from day 7 onwards every 2 days and was taken as a parameter for systemic toxicity. All presented values are the means ±SD of no less than three measurements.
Moreover, it provides no information on the toxicity of the compounds. […] Seven days after tumor inoculation the tumor-bearing mice were randomized into vehicle control and treatment groups. Control mice received the vehicle (0.5% DMSO (v/v) and 99.5% of a saline solution (v/v)), whereas treated groups received daily doses of ctc-[Pt(NH3)2(Gem-Carb)(PhB)Cl2] […] As an estimation of the adverse side effects, changes in the body weights were monitored every two days.

[2] = design: species or system C57BL mice; conditions: mouse, in vivo
Protocol: In vivo anticancer activity toward Lewis lung carcinoma (LLC). All studies involving animal testing were carried out in accordance with ethical guidelines for animal research acknowledging the European Directive 2010/63/UE as to the animal welfare and protection and the related codes of practice. The mice were purchased from Charles River, housed in steel cages under controlled environmental conditions (constant temperature, humidity, and 12 h dark/light cycle), and alimented with commercial standard feed and tap water ad libitum. The LLC cell line was purchased from ECACC, United Kingdom. […] At day 15, animals were sacrificed, the legs were amputated at the proximal end of the femur, and the inhibition of tumor growth was determined from the difference in the weights of the tumor-bearing leg and the healthy leg of the animals, expressed as a percentage referenced to the control animals Body weight was measured at day 0 and from day 7 onwards every 2 days and was taken as a parameter for systemic toxicity. […]
Moreover, it provides no information on the toxicity of the compounds. […] As an estimation of the adverse side effects, changes in the body weights were monitored every two days.

physchem = type: physicochemical
Protocol: ctc-[Pt(NH3)2(Tax-Carb)(OH)Cl2] (3 mg, 0.0025 mmol) was dissolve in 750 μL of DMSO-d6 and mixed with ascorbic acid (2.2 mg, 0.0125 mmol). The ^1H NMR spectra were recorded every 6 min at 37° C.
We incubated ctc-[Pt(NH3)2(Tax-Carb)(OH)Cl2] with 5 eq of ascorbate and the reduction was followed by ^1H NMR. The NH proton in ctc-[Pt(NH3)2(Tax-Carb)(OH)Cl2] resonates at 9.2 ppm and in free taxol at ˜8.85 ppm. […] Similar results were obtained for the reduction of ctc-[Pt(NH3)2(EM-Carb)(OAc)Cl2] (FIG. 5A).

[3] = Homo sapiens, A2780cisR, Table 1, 72 h incubation, MTT, read-out: In vitro IC50 (μM) Cancer cell lines A2780cisR
[4] = Homo sapiens, A2780, Table 1, 72 h incubation, MTT, read-out: In vitro IC50 (μM) Cancer cell lines A2780

Structure (SMILES): COc1ccc(/C=C\c2cc(OC)c(OC)c(OC)c2)cc1O [CA4, combretastatin-A4]
- IC50 (A375; Table 3, unit nM, read-out: Cytotoxicity data A375 mean): 1.63 nM
- IC50 (A2780cisR; Table 3, unit nM, read-out: Cytotoxicity data A2780 res mean): 2.63 nM
- IC50 (PC9; Table 3, unit nM, read-out: Cytotoxicity data PC9 mean): 4.87 nM
- IC50 (A2780; Table 3, unit nM, read-out: Cytotoxicity data A2780 mean): 2.12 nM

Structure (SMILES): N.N.[Cl][Pt][Cl] [Cisplatin, cisplatin]
- reduction of tumor growth / tumor mass compared to the control group [1]: ~90%
- In vivo efficacy LLC Inhibition of tumor growth (%) [1]: 90.3%
- In vivo efficacy LLC tumor weight [1]: 0.040 ± 0.01 g
- Average tumor weight (mean ± SD, g) [1]: 0.040 ± 0.01 g
- Inhibition of tumor growth (%) [1]: 90.3%

Structure (SMILES): Nc1ccn([C@@H]2O[C@H](CO)[C@@H](O)C2(F)F)c(=O)n1 [Gemcitabine, gemcitabine]
- reduction of tumor growth / tumor mass compared to the control group [1]: about 80%
- In vivo efficacy LLC Inhibition of tumor growth (%) [1]: 80.5%
- In vivo efficacy LLC tumor weight [1]: 0.08 ± 0.2 g
- Average tumor weight (mean ± SD, g) [1]: 0.080 ± 0.2 g
- Inhibition of tumor growth (%) [1]: 80.5%
- IC50 (A2780cisR; [3]): 5 ± 1 nM
- body weight loss [2]: ~20%
- IC50 (A2780; [4]): 2 ± 1 nM

Structure (SMILES): N.N.[Cl-].[Cl-].[OH-].[OH-].[Pt+4] [Oxoplatin, oxoplatin]
- IC50 (A375; Table 3, unit μM, read-out: Cytotoxicity data A375 mean): 2210 nM
- IC50 (A2780cisR; Table 3, unit μM, read-out: Cytotoxicity data A2780 res mean): 1170 nM
- IC50 (PC9; Table 3, unit μM, read-out: Cytotoxicity data PC9 mean): 3990 nM
- IC50 (A2780; Table 3, unit μM, read-out: Cytotoxicity data A2780 mean): 450 nM

Structure (SMILES): CC(=O)O[C@H]1C(=O)[C@@]2(C)[C@H]([C@H](OC(=O)c3ccccc3)[C@]3(O)C[C@H](OC(=O)[C@H](O)[C@@H](NC(=O)c4ccccc4)c4ccccc4)C(C)=C1C3(C)C)[C@]1(OC(C)=O)CO[C@@H]1C[C@@H]2O [Taxol, Paclitaxel]
- IC50 (A375; Homo sapiens, A-375, Table 4, cells in nM, read-out: Cytotoxicity data A375): 10 nM
- IC50 (A2780cisR; [3]): 3 ± 0.06 nM
- IC50 (A2780cisR; Homo sapiens, A2780cisR, Table 4, cells in nM, read-out: Cytotoxicity data A2890cisR): 3.1 nM
- IC50 (PC9; Homo sapiens, PC-9, Table 4, cells in nM, read-out: Cytotoxicity data PC9): 4.5 nM
- IC50 (A2780; [4]): 2.2 ± 1 nM
- IC50 (A2780; Homo sapiens, A2780, Table 4, cells in nM, read-out: Cytotoxicity data A2780): 1.05 nM

Structure (SMILES): CC(=O)OC1C(=O)C2(C)C(O)CC3OCC3(OC(C)=O)C2C(OC(=O)c2ccccc2)C2(O)CC(OC(=O)C(OC(=O)[O][Pt]([NH2])([NH2])([OH])([Cl])[Cl])C(NC(=O)c3ccccc3)c3ccccc3)C(C)=C1C2(C)C (stereo not shown) [ctc-[Pt(NH3)2(Tax-Carb)(OH)Cl2]]
- half-life at 3.3 mM (physchem): 25 min
